Measurements reported in patent publication US6583133B1, “Propenyl cephalosporin derivatives and process for the manufacture thereof” (Basilea Pharmaceutica AG, priority 1998, dated 2003).
Converted amounts (≈) assume the structure as drawn. Read-outs that look alike come from different tables or passages of the source.

What was measured:
[1] = system: E. faecalis 6; assay: MIC, agar dilution method in Mueller Hinton agar; format: cell-based; settings: inoculum 10^4 CFU/spot
Protocol: (§1) Representative compounds of the present invention were tested. In vitro activity was determined by minimum inhibitory concentration in a microorganism spectrum by the agar dilution method in Mueller Hinton agar, inoculum=10^4 CFU/spot.

[2] = system: S. aureus 270A (MRSA); assay: MIC, agar dilution method in Mueller Hinton agar; format: cell-based; settings: inoculum 10^4 CFU/spot
Protocol: as §1

[3] = system: S. pneumoniae 907; assay: MIC, agar dilution method in Mueller Hinton agar; format: cell-based; settings: inoculum 10^4 CFU/spot
Protocol: as §1

[4] = system: S. aureus 6538 (MSSA); assay: MIC, agar dilution method in Mueller Hinton agar; format: cell-based; settings: inoculum 10^4 CFU/spot
Protocol: as §1

[5] = system: S. aureus SPO-19 (MRSA); assay: MIC against MRSA alone or in combination with imipenem or compound X, agar dilution; format: cell-based, Staphylococcus aureus; settings: inoculum 10^5 CFU/spot; for MIC: Staphylococcus aureus, MRSA
Excerpt: (§2) For example, the combination with carbapenem antibiotics such as imipenem, or with β-lactamase-inhibitors such as (Z)-(2S,3S,5R)-3-(2-cyanoethenyl)-3-methyl-4,4,7-trioxo-4-thia-1-aza-bicyclo[3.2.0]heptane-2-carboxylic acid (below named “compound X”), enhances the antibacterial activity of compounds I against highly resistant strains of Graem-positive bacterias, e.g. methicillin-resistant strains of Staphylococcus aureus.

[6] = system: S. aureus 42080 (MRSA); assay: as above; format: cell-based, Staphylococcus aureus; settings: inoculum 10^5 CFU/spot; for MIC: Staphylococcus aureus, MRSA
Excerpt: as §2

[7] = Enterococcus faecalis, read-out: MIC
[8] = Staphylococcus aureus, read-out: MIC
[9] = Streptococcus pneumoniae, read-out: MIC
[10] = in combination with Compound X (μg/ml, concentration not given)
[11] = in combination with Imipenem (4 μg/ml)

Compound | MIC [1, 7] | MIC [2, 8] | MIC [3, 9] | MIC [4, 8] | MIC [1] | MIC [2] | MIC [3] | MIC [4] | further results
O=C(CSc1nc2ccccc2s1)N[C@@H]1C(=O)N2C(C(=O)[O-])=C(/C=C/C[n+]3ccccc3)CS[C@H]12 [Example 2, (E)-(6R,7R)-7-[2-(benzothiazol-2-ylsulfanyl)-acetylamino]-8-oxo-3-(3-pyridin-1-ium-1-yl-propenyl)-5-thia-1-aza-bicyclo[4.2.0]oct-2-ene-2-carboxylate] | 2 µg/mL (≈ 3.81 µM) | 2 µg/mL (≈ 3.81 µM) | < 0.1 µg/mL | < 0.1 µg/mL | – | – | – | – | –
Cc1cccc[n+]1C/C=C/C1=C(C(=O)[O-])N2C(=O)[C@@H](NC(=O)CSc3ccc4ccccc4c3)[C@H]2SC1 [Example 7, (E)-(6R,7R)-3-[3-(2-Methyl-pyridin-1-ium-1-yl)-propenyl]-7-[2-(naphthalen-2-ylsulfanyl)-acetylamino]-8-oxo-5-thia-1-aza-bicyclo[4.2.0]oct-2-ene-2-carboxylate] | 1 µg/mL (≈ 1.88 µM) | 2 µg/mL (≈ 3.76 µM) | < 0.1 µg/mL | < 0.1 µg/mL | – | – | – | – | –
O=C(CSc1ccc2ccccc2c1)N[C@@H]1C(=O)N2C(C(=O)[O-])=C(/C=C/C[n+]3cccc(O)c3)CS[C@H]12 [Example 9, (E)-(6R,7R)-3-[3-(3-Hydroxy-pyridin-1-ium-1-yl)-propenyl]-7-[2-(naphtalen-2-ylsulfanyl)-acetylamino]-8-oxo-5-thia-1-aza-bicyclo[4.2.0]oct-2-ene-2-carboxylate] | – | – | – | – | 0.5 µg/mL (≈ 0.937 µM) | 2 µg/mL (≈ 3.75 µM) | <0.1 µg/mL | <0.1 µg/mL | –
O=C(CSc1ccc2ccccc2c1)N[C@@H]1C(=O)N2C(C(=O)[O-])=C(/C=C/C[n+]3cccc4ccccc43)CS[C@H]12 [Example 13, (E)-(6R,7R)-7-[2-(Naphthalen-2-ylsulfanyl)-acetylamino]-8-oxo-3-(3-quinolin-1-ium-1-yl-propenyl)-5-thia-1-aza-bicyclo[4.2.0]oct-2-ene-2-carboxylate] | 0.25 µg/mL (≈ 0.44 µM) | 1 µg/mL (≈ 1.76 µM) | < 0.1 µg/mL | < 0.1 µg/mL | – | – | – | – | –
C[N+]1(C/C=C/C2=C(C(=O)[O-])N3C(=O)[C@@H](NC(=O)CSc4ccc5ccccc5c4)[C@H]3SC2)CCCC1 [Example 15] | – | – | – | – | 0.5 µg/mL (≈ 0.955 µM) | 2 µg/mL (≈ 3.82 µM) | <0.1 µg/mL | <0.1 µg/mL | –
C[N+](C)(C/C=C/C1=C(C(=O)[O-])N2C(=O)[C@@H](NC(=O)CSc3ccc4ccccc4c3)[C@H]2SC1)CC(N)=O [Example 19, (E)-(6R,7R)-3-[3-(Carbamoylmethyl-dimethyl-ammonio)-propenyl]-7-[2-(naphtalen-2-ylsulfanyl)-acetylamino]-8-oxo-5-thia-1-aza-bicyclo[4.2.0]oct-2-ene-2-carboxylate] | – | – | – | – | 0.5 µg/mL (≈ 0.925 µM) | 1 µg/mL (≈ 1.85 µM) | <0.1 µg/mL | <0.1 µg/mL | –
O=C(CSc1ccc2ccccc2c1)N[C@@H]1C(=O)N2C(C(=O)[O-])=C(/C=C/C[n+]3ccccc3)CS[C@H]12 [Example 22, (E)-(6R,7R)-7-[2-(naphthalen-2-ylsulfanyl)-acetylamino]-8-oxo-3-(3-pyridin-1-ium-1-yl-propenyl)-5-thia-1-aza-bicyclo[4.2.0]oct-2-ene-2-carboxylate] | 0.5 µg/mL (≈ 0.966 µM) | 1 µg/mL (≈ 1.93 µM) | < 0.1 µg/mL | < 0.1 µg/mL | – | – | – | – | MIC ([5]; compound alone): 4 µg/mL; MIC against MRSA [5, 10]: 0.5 µg/mL; MIC against MRSA [5, 11]: 1 µg/mL; MIC ([6]; compound alone): 4 µg/mL; MIC against MRSA [6, 10]: 1 µg/mL; MIC against MRSA [6, 11]: 1 µg/mL
C[N+](C)(C/C=C/C1=C(C(=O)[O-])N2C(=O)[C@@H](NC(=O)CSc3nc4ccccc4s3)[C@H]2SC1)CCO [Example 41, (E)-(6R,7R)-3-[3-[Dimethyl-(2-hydroxy-ethyl)-ammonio]-propenyl]-7-[2-(benzothiazol-2-ylsulfanyl)-acetylamino]-8-oxo-5-thias1-aza-bicyclo[4.2.0]oct-2-ene-2-carboxylate] | – | – | – | – | 1 µg/mL (≈ 1.87 µM) | 4 µg/mL (≈ 7.48 µM) | <0.1 µg/mL | <0.1 µg/mL | –
O=C(CSc1ccc2ccccc2c1)N[C@@H]1C(=O)N2C(C(=O)[O-])=C(/C=C/C[N+]34CCN(CC3)CC4)CS[C@H]12 [Example 59, (E)-(6R,7R)-3-[3-(4-Aza-1-azonia-bicyclo[2,2,2]octan-1-yl)-propenyl]-7-[2-(naphthalen-2-ylsulfanyl)-acetylamino]-8-oxo-5-thia-1-aza-bicyclo[4.2.0]oct-2-ene-2-carboxylate] | 2 µg/mL (≈ 3.63 µM) | 2 µg/mL (≈ 3.63 µM) | < 0.1 µg/mL | < 0.1 µg/mL | – | – | – | – | MIC ([5]; compound alone): 4 µg/mL; MIC against MRSA [5, 11]: 1 µg/mL; MIC ([6]; compound alone): 4 µg/mL; MIC against MRSA [6, 11]: 2 µg/mL
C[N+](C)(C/C=C/C1=C(C(=O)[O-])N2C(=O)[C@@H](NC(=O)CSc3ccc4ccccc4c3)[C@H]2SC1)CCCO [Example 62, (E)-(6R,7R)-3-[3-[(3-Hydroxy-propyl)-dimethyl-ammonio]-propenyl]-7-[2-(naphthalen-2-ylsulfanyl)-acetylamino]-8-oxo-5-thia-1-aza-bicyclo[4.2.0]oct-2-ene-2-carboxylate] | 1 µg/mL (≈ 1.85 µM) | 2 µg/mL (≈ 3.69 µM) | < 0.1 µg/mL | < 0.1 µg/mL | – | – | – | – | MIC ([5]; compound alone): 2 µg/mL; MIC against MRSA [5, 11]: 1 µg/mL; MIC ([6]; compound alone): 4 µg/mL; MIC against MRSA [6, 11]: 2 µg/mL
C[N+](C)(C/C=C/C1=C(C(=O)[O-])N2C(=O)[C@@H](NC(=O)CSc3nc4ccccc4s3)[C@H]2SC1)C(CO)CO [Example 67, (E)-(6R,7R)-7-[2-(Benzothiazol-2-ylsulfanyl)-acetylamino]-8-oxo-3-[3-[(2-hydroxy-1-hydroxymethyl-ethyl)-dimethyl-ammonio]-propenyl]-5-thia-1-aza-bicyclo[4.2.0]oct-2-ene-2-carboxylate] | 1 µg/mL (≈ 1.77 µM) | 2 µg/mL (≈ 3.54 µM) | < 0.1 µg/mL | < 0.1 µg/mL | – | – | – | – | –
C[N+](C)(C/C=C/C1=C(C(=O)[O-])N2C(=O)[C@@H](NC(=O)CSc3ccc4cc(C(=O)O)ccc4c3)[C@H]2SC1)CC(N)=O [Example 99] | – | – | – | – | 4 µg/mL (≈ 6.84 µM) | 2 µg/mL (≈ 3.42 µM) | <0.1 µg/mL | <0.1 µg/mL | –
C[C@@H](O)[C@H]1C(=O)N2C(C(=O)O)=C(SCCN=CN)C[C@H]12 [Imipenem, imipenem, reference compound] | – | – | – | – | – | – | – | – | MIC ([5]; compound alone): > 16 µg/mL; MIC ([6]; compound alone): > 16 µg/mL
(E)-(6R,7R)-8-Oxo-3-(3-pyridin-1-ium-1-yl-propenyl)-7-[2-(2,4,5-trichlorophenylsulfanyl)-acetylamino]-5-thia-1-aza-bicyclo[4.2.0]oct-2-ene-2-carboxylate [Example 6] | – | – | – | – | 0.25 µg/mL | 1 µg/mL | <0.1 µg/mL | <0.1 µg/mL | MIC against MRSA ([5]; compound alone): 4 µg/mL; MIC against MRSA [5, 11]: 0.5 µg/mL; MIC against MRSA ([6]; compound alone): 8 µg/mL; MIC against MRSA [6, 11]: 1 µg/mL
